pIC50, pKd: −log10 of the molar value.
Columns and labels:
[1] = tested on: CAMKK2; design: method as in Anastassiadis et al. (2011); settings: 0.5 µM compound; ref Anastassiadis et al. (2011); cited from earlier work
[2] = tested on: CAMKK1; design: method as in Anastassiadis et al. (2011); settings: 0.5 µM compound; ref Anastassiadis et al. (2011); cited from earlier work
[3] = target: T1, CAMKK1-FL (Homo sapiens, UniProt Q8N5S9); test: Radiometric enzymatic assay (Eurofins Discovery), Ca2+/Calmodulin present; assay type: biochemical; settings: 200 µM ATP; single measurement
T1 construct: purchased Eurofins Discovery (MO, USA), assay service
Procedure: All compounds employed in this study were initially developed to target other human protein kinases, and some are known to be quite promiscuous[18],[21].
Reaction conditions for assays using CAMKK1-FL were: 8 mM MOPS pH 7.0, 0.2 mM EDTA, 0.33 mg/mL MBP (myelin basic protein), 0.5 mM calcium chloride, 0.016 mg/ml calmodulin, 10 mM magnesium acetate and [gamma-^33P-ATP] (200 µM). […] The reactions were initiated by the addition of a Mg^2+-ATP mixture. After incubation for 40 minutes at room temperature, the reaction was stopped by the addition of phosphoric acid to a final concentration of 0.5%. […] Following subtraction of the average inhibitor control well counts, results were expressed as a percentage of the mean kinase activity in the positive control sample.

[4] = target: T2, CAMKK2-FL (Homo sapiens, UniProt Q96RR4); test: as above; assay type: biochemical; settings: for pIC50: 90 µM ATP, single measurement
T2 construct: an enzymatic assay using the full-length protein (CAMKK2-FL); purchased Eurofins Discovery (MO, USA), assay service

[5] = target: T3, CAMKK2-KD (kinase domain of CAMKK2) (Homo sapiens, UniProt Q96RR4); test: DSF thermal-shift screen, 96-well format; assay type: binding; settings: 96-well format; 12 µM compound, 2 µM kinase, 2.5% DMSO; single measurement; read-out: ΔTm
T3 construct: the protein kinase domain (amino acids 161–449); hexahistidine (6xHis), TEV-cleavable; made in house
T3 sequence (Q96RR4 161-449): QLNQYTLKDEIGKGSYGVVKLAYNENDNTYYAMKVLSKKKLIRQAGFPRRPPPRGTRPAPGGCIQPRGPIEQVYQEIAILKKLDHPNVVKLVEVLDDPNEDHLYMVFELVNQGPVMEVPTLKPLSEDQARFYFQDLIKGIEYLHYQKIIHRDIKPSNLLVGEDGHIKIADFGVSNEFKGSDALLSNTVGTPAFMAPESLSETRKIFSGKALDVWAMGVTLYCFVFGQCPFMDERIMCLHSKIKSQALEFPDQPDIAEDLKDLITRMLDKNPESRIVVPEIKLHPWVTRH
Procedure: (§1) We employed a thermal-shift assay (Differential Scanning Fluorimetry, DSF)[19] to identify compounds that can bind to the kinase domain of CAMKK2 (CAMKK2-KD). Protein thermal denaturation curves (Fig. 1A,B) were used to calculate the denaturation midpoint temperature (Tm) for the kinase domain of CAMKK2 in the presence of ligands or vehicle only (DMSO). […] DSF screens were performed on purified CAMKK2-KD using a library of commercially available, chemically diverse, ATP-competitive, kinase inhibitors.
SYPRO Orange dye (Invitrogen) was used in 5X as final concentration.
Plates were sealed using optically clear films and transferred to an Mx3005p RT-PCR machine (Agilent).
(§2) For both formats, experiments were performed in singlets.

[6] = target: T3, CAMKK2-KD (kinase domain of CAMKK2); test: DSF thermal-shift screen, 384-well format; assay type: binding; settings: 10 µM compound, 1 µM kinase, 0.1% DMSO, single measurement
Procedure: as §1
DSF experiments in 384-well format followed a protocol previously established at the SGC-UNICAMP and described elsewhere.
The compounds, previously solubilized in DMSO, were used at 10 µM final concentration and 0.1% DMSO. Plates were sealed using optically clear films and transferred to a QuantStudio 6 qPCR instrument (Applied Biosystems). […] Protein in 0.1% DMSO was used as a reference.
as §2

[7] = target: CAMKK2-KD (Homo sapiens, UniProt Q96RR4); test: Isothermal titration calorimetry (reverse titration); settings: 20 °C
Chain of CAMKK2-KD (Q96RR4 161-449): as above
Procedure: All ITC experiments described below were performed twice.
Measurements were made using a MicroCal AutoITC200 (Malvern, United Kingdom). […] Small molecule inhibitors were diluted in dialysis buffer. All ITC experiments were performed using a “reverse titration” setup in which the protein (in the syringe) was titrated into the cell containing the inhibitor. Two independent ITC measurements were performed for each compound, data for individual runs were integrated separately to obtain single isotherms, which were plotted and analyzed using Sedphat[37]. […] All measurements were made at 20 °C with mixing (1,000 rpm stirring), and used 1.5 µL injections and 180 s between each injection. NITPIC, SEDPHAT and GUSSI[37] were used to analyze and generate figures for ITC data.

[8] = tested on: six other kinases (panel of 92 protein kinases); design: method as in PMID 17850214; settings: screened against a panel of only 92 protein kinases; cited from earlier work
[9] = individual ITC experiment, run 1
[10] = individual ITC experiment, run 2

For `CC(C)[C@H](CO)Nc1nc(Nc2cc(N)cc(Cl)c2)c2ncn(C(C)C)c2n1` [Aminopurvalanol], the “% Activity Remaining at 0.5 µM, CAMKK2” value [1] is listed as 33.3%, the “% Activity Remaining at 0.5 µM, CAMKK1” value [2] is listed as 86.8% and the pIC50 [3] is listed as 6.73. It also gave a pIC50 [4] of 6.80 and a ΔTm at 12 µM [5] of 9.7 °C.
For `COCCOc1ccc2c(c1)ncn2-c1ccc2cccc(N3CCC(N)CC3)c2n1` [CP-673451], the pIC50 [3] was 6.91, the pIC50 [4] was 7.72 and the “fold more active towards CAMKK2-FL than CAMKK1-FL” value ([4]; from IC50 values of Table 1) was ~ 10 fold. For the same compound, the ΔTm at 10 µM [6] was 10 °C, the pKd ([7]; ITC KD, serial integrations of two independent experiments) was 8.70 and the pKd ([7]; KD Run 1, individual ITC experiment, run 1) was 8.59. For the same compound, the pKd ([7]; KD Run 2, individual ITC experiment, run 2) was 8.82, the “ΔG Run 1” value [7, 9] was -11.5 kcal/mol and the “ΔH Run 1” value [7, 9] was -13.2 kcal/mol. For the same compound, the “ΔG Run 2” value [7, 10] was -11.8 kcal/mol and the “ΔH Run 2” value [7, 10] was -13 kcal/mol.
In the case of `O=C(O)c1ccc2c3c1cccc3c(=O)n1c3ccccc3nc21` [STO-609], the pIC50 [8] is listed as over 6.60.
For `CN[C@@H]1C[C@H]2O[C@@](C)([C@@H]1OC)n1c3ccccc3c3c4c(c5c6ccccc6n2c5c31)C(=O)NC4` [Staurosporine], the “% Activity Remaining at 0.5 µM, CAMKK2” value [1] is listed as 0.24% and the “% Activity Remaining at 0.5 µM, CAMKK1” value [2] is listed as -3.13%.
